The values below are quoted from earlier work in patent EP3196312B1, “EFFICIENT CONVERSION OF METHYLGLYOXAL INTO HYDROXYACETONE USING NOVEL ENZYMES AND APPLI CATIONS THEREOF” (Metabolic Explorer, priority 2016, dated 2017).

Data set [1] has as its target T1, Escherichia coli YqhD (alcohol dehydrogenase, Uniprot Q46856), wild type, SEQ ID NO: 7 (Escherichia coli, UniProt Q46856).
T1 sequence (Q46856 1-387): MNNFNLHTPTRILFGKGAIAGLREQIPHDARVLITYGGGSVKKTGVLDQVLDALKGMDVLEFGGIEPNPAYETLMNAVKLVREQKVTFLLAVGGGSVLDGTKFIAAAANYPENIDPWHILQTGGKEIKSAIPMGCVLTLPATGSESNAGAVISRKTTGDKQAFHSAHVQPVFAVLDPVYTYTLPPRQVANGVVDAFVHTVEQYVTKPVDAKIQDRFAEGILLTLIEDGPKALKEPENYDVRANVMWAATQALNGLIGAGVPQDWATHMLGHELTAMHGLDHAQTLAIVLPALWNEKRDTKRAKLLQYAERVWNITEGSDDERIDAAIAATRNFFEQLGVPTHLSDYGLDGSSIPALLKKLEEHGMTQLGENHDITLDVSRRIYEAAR
The following applies: toward methylglyoxal and NADPH; as cited from WO 2011/012697.

Data set [2] deals with T2, Escherichia coli YqhD variant YqhD*(G149E), SEQ ID NO: 9 (Escherichia coli, UniProt Q46856, G149E).
T2 sequence (Q46856 1-387 G149E): T1 sequence (Q46856 1-387)
The following applies: toward methylglyoxal and NADPH; as cited from WO 2011/012697.

Take `CC(=O)C=O` [methylglyoxal]: the Km (as a rule, the concentration of substrate that gives half-maximal velocity) in data set [1] is 2090 µM; in data set [2] it was 2920 µM.
